According to US20250236589A1, “THERAPEUTIC PHENETHYLAMINE COMPOSITIONS AND METHODS OF USE” (Cybin IRL Limited, priority 2022, published 2025):
Read-outs that look alike come from different tables or passages of the source. Marks after values point to notes of the source that are not given here.

Experiments:
[1] = In vitro liver microsome stability (RLM); assay type: in vitro ADME; conditions: rat, rat liver microsomes, 0.5 mg/mL microsomes, NADPH, read-out: RLM, t1/2
Protocol: In vitro stability was determined in Human (HLM), Rat (RLM), Mouse (MsLM), and dog (DLM) Liver Microsomes. All liver microsomes were purchased from a commercial supplier (e.g. XenoTech). The reaction mixture, minus NADPH, was prepared as described below. The test compound was added into the reaction mixture at a final concentration of 1 μM or co-dosed with their deuterated analog(s) at 1 μM each. The control compound, testosterone, was run simultaneously with the test compound in a separate reaction. The reaction mixture (without cofactor) was equilibrated in a shaking water bath at 37° C. for 5 minutes. The reaction was initiated by the addition of the cofactor, and the mixture was incubated in a shaking water bath at 37° C. Aliquots (150 μL) were withdrawn at 0, 5, 10, 20, 30, 60, and 120 minutes. Test compound and testosterone samples were immediately combined with 150 μL of ice-cold acetonitrile (ACN) containing 0.1% formic acid and internal standard to terminate the reaction. The samples were then mixed and centrifuged to precipitate proteins. All samples were assayed by LC-MS/MS using electrospray ionization. The peak area response ratio (PARR) of analyte to internal standard at each time point was compared to the PARR at time 0 to determine the percent remaining at each time point. Half-lives were calculated using GraphPad software, fitting to a single-phase exponential decay equation.

MAO-A = MAO-A (Homo sapiens (Human), UniProt P21397); assay: Recombinant human MAO-A activity (stability); assay type: in vitro ADME; conditions: hrMAO 0.02 mg/mL, read-out: MAO-A, t1/2
Protocol: hrMAO-A and MAO control were purchased from XenoTech. The reaction mixture was prepared as described below. The test compound was added into the reaction mixture at a final concentration of 1 μM or co-dosed with their deuterated analog at 1 μM each. The positive control kynuramine (25 μM) was run simultaneously with the test compound in a separate reaction. The reaction mixture (without test compounds or kynuramine) was equilibrated in a shaking water bath at 37° C. for 5 minutes. The reaction was initiated by the addition of the test compound or kynuramine, and the mixture was incubated in a shaking water bath at 37° C. Aliquots (150 μL) of the test compound reaction mixture were withdrawn at 0, 5, 10, 20, 30, 60, and 120 minutes. Aliquots (150 μL) of the positive control reaction mixture were withdrawn at 0 and 30 minutes. Test compound(s) and kynuramine samples were immediately combined with 150 μL of ice-cold 100% acetonitrile containing 0.1% formic acid and internal standard (0.2 μM metoprolol) to terminate the reaction. The samples were then mixed and centrifuged to precipitate proteins. All samples were assayed by LC-MS/MS. The peak area response ratio (PARR) of analyte to internal standard at each time point was compared to the PARR at time 0 to determine the percent remaining at each time point. Half-lives were calculated using GraphPad software, fitting to a single-phase exponential decay equation.

5-HT2A receptor [2] = molecular target: T1, 5-HT2A receptor (Homo sapiens (Human), UniProt P28223); assay: 5-HT2A radioligand competition binding ([3H]LSD or [3H]ketanserin)
mice = assay: Head-twitch response (HTR) screening in mice; assay type: in vivo, mouse
Protocol: Protocols were followed according to Canal C E, Morgan D. Head-twitch response in rodents induced by the hallucinogen 2,5-dimethoxy-4-iodoamphetamine: a comprehensive history, a re-evaluation of mechanisms, and its utility as a model. […] Mice were housed in standard laboratory cages with ad libitum access to food and water and were acclimated to the vivarium for at least one week prior to testing in a procedure room. In a typical experiment, mice were injected 3 mg/kg of test article subcutaneously. Mice were placed immediately thereafter in a clear, polycarbonate box (46×20×20 cm), and HTRs were counted at various time points after administration using hand-held tally counters. In a separate experiment, plasma and brain samples were collected at 15 and 160 minutes after administration of test compounds to measure plasma and brain concentrations. Quantification was performed using LC-MS/MS method (LLOQ, 9 nM).

5-HT2A receptor [3] = molecular target: T1, 5-HT2A receptor; assay: 5-HT2A functional assay, IP1 (IPOne); assay type: cell-based; conditions: IP1 assay; for EC50: read-out: 5-HT2A EC50; for Emax: relative to 5-HT
Protocol: After incubation, cells were lysed and fluorescence acceptor and donor were added. FRET was measured after 60 min at room temperature using a microplate reader (Envision, Perkin Elmer). TRUPATH assays followed a similar workflow, except that different reagents were used, and LiCl was not included in the samples; the protocol was based on the report by Olsen, R. H. J. et al., cited above.

human 5-HT2B receptor = human 5-HT2B receptor (Homo sapiens (Human), UniProt P41595); assay: 5-HT2B functional assay, IP1 (IPOne); assay type: cell-based; conditions: for Emax: IP1 assay, relative to 5-HT
Protocol: 5-HT2A,2B,2C receptor-mediated Gq activation—canonical signaling pathways—[phosphoinositide hydrolysis leading to the production of inositol phosphate 1 (IP1, IPOne, Cisbio assay) or direct G-protein activation using TRUPATH technology]were measured as previously described (Porter, R. H. P., Benwell, K. R., Lamb, H., Malcolm, C. S., Allen, N. F., Revell, D. F., Adams, D. R. and Sheardown, M. J., 1999, Functional characterization of agonists at recombinant human 5-HT2a, 5HT2b and 5-HT2c receptors in CHO-K1 cells, Brit J Pharmacol 128, 13; Olsen, R. H. J., DiBerto, J. F., English, J. G. et al. TRUPATH, an open-source biosensor platform for interrogating the GPCR transducerome. […] Briefly, for the IPOne assay, for 5-HT2ARs, CHO-K1 or HEK-293 cells were incubated with test articles and 5-HT (positive control) in stimulation buffer containing LiCl. After incubation, cells were lysed and fluorescence acceptor and donor were added. FRET was measured after 60 min at room temperature using a microplate reader (Envision, Perkin Elmer). TRUPATH assays followed a similar workflow, except that different reagents were used, and LiCl was not included in the samples; the protocol was based on the report by Olsen, R. H. J. et al., cited above.

[4] = Plasma and brain concentrations after dosing in mice (screening); assay type: in vivo, mouse; conditions: mouse; for concentration at 15 min / concentration at 160 min: sc, mice, 3 mg/kg s.c.; for Kp at 160 min: brain/plasma, subcutaneous, 3 mg/kg, 160 min after 3 mg/kg, read-out: brain/plasma ratio, 160 min
[5] = read-out: 5-HT2A, Ki, radioligand [3H]LSD
[6] = read-out: 5-HT2A, Ki, radioligand [3H]ketanserin
[7] = brain, read-out: Brain, 160 min
[8] = plasma, read-out: Plasma, 15 min
[9] = plasma, read-out: Plasma, 160 min

Chain of human 5-HT2B receptor (P41595 whole entry, looked up): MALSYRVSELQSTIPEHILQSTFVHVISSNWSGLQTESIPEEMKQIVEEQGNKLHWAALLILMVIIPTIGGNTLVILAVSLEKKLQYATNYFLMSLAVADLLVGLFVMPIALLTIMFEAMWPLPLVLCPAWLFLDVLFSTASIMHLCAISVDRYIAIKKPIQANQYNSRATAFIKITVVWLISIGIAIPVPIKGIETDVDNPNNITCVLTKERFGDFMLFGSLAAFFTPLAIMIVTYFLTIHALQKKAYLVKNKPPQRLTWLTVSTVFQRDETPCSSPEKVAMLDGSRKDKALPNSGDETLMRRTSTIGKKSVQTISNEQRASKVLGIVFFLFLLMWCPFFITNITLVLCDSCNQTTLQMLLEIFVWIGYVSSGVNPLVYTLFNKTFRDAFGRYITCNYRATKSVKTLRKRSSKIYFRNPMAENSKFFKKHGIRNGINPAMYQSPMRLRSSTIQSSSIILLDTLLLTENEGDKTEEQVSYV
Chain of MAO-A (P21397 whole entry, looked up): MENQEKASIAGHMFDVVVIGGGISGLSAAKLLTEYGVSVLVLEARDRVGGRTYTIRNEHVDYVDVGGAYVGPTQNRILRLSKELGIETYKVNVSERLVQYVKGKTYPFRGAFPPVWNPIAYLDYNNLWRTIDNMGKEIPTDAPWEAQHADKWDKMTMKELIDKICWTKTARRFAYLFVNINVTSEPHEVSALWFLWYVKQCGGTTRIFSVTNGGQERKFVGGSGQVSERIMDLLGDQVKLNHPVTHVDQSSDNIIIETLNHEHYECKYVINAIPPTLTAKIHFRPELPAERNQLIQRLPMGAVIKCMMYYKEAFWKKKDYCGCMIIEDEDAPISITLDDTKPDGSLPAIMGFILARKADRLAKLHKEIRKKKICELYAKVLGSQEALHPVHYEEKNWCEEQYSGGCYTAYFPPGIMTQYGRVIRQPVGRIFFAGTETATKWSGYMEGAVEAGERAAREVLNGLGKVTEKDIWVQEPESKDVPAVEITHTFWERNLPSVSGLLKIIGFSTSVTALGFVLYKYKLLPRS

For `COc1cc(SCCCF)c(OC)cc1CCN` [Compound I-4, 2-(4-((3-fluoropropyl)thio)-2,5-dimethoxyphenyl)ethan-1-amine], the half-life at 1 μM [1] was 11 min, the half-life at 1 μM (MAO-A) was 45 min and the “affinity at 5-HT2A receptors (in words)” value (5-HT2A receptor [2]) was “high affinity”. The Ki (5-HT2A receptor [2]; [5]) was 12 nM.

For `COc1cc(SC)c(OC)cc1CCN` [Reference Compound 3, 2-(2,5-dimethoxy-4-(methylthio)phenyl)ethan-1-amine, reference compound], the “HTR 15-25 min” value (mice; measured 0-15 min) was 19 ##, the half-life at 1 μM [1] was 5.2 min and the half-life at 1 μM (MAO-A) was > 120 min. It also gave a Ki (5-HT2A receptor [2]; [6]) of 296 nM.

With `[2H]C([2H])([2H])Oc1cc(SC)c(OC([2H])([2H])[2H])cc1CCN` [II-1, 2-(2,5-bis(methoxy-d3)-4-(methylthio)phenyl)ethan-1-amine] the “HTR 15-25 min” value (mice; measured 0-15 min) was 21 ##, the half-life at 1 μM [1] was 5.7 min and the Ki (5-HT2A receptor [2]) was > 150 nM. For the same molecule, the Ki (5-HT2A receptor [2]; [6]) was 174 nM.

With `COc1cc(OCCC(F)(F)F)c(OC)cc1CCN` [Compound I-5, 2-(2,5-dimethoxy-4-(3,3,3-trifluoropropoxy)phenyl)ethan-1-amine] the half-life at 1 μM [1] was > 120 min and the Ki (5-HT2A receptor [2]) was > 150 nM.

With `[2H]C([2H])(N)Cc1cc(OC)c(SC)cc1OC` [IV-1, 2-(2,5-dimethoxy-4-(methylthio)phenyl)ethan-1,1-d2-1-amine] the half-life at 1 μM [1] was 5.3 min, the Ki (5-HT2A receptor [2]) was > 150 nM and the Ki (5-HT2A receptor [2]; [6]) was 357 nM.

For `COc1cc(SCC(F)(F)C(F)F)c(OC)cc1CCN` [Compound I-10, 2-(2,5-dimethoxy-4-((2,2,3,3-tetrafluoropropyl)thio)phenyl)ethan-1-amine], the “2A/2B EC50 Selectivity” value (5-HT2A receptor [3]) was 2.7, the EC50 (5-HT2A receptor [3]) was 89 nM and the Emax (5-HT2A receptor [3]) was 76%. The EC50 (human 5-HT2B receptor) was 240 nM, the Emax (human 5-HT2B receptor) was 84% and the “HTR 15-25 min” value (mice; mice, 3 mg/kg s.c.) was 3.4. The “HTR 160-170 min” value (mice; mice, 3 mg/kg s.c.) was 2.7, the concentration at 15 min ([4]; brain, read-out: Brain 15 min) was 900 nM and the concentration at 160 min [4, 7] was 1100 nM. For the same molecule, the Kp at 160 min [4] was 12.3, the concentration at 15 min [4, 8] was 900 nM and the concentration at 160 min [4, 9] was 100 nM. For the same molecule, the “affinity at 5-HT2A receptors (in words)” value (5-HT2A receptor [2]) was “high affinity”.

For `COc1cc(OCCC(F)F)c(OC)cc1CCN` [Compound I-6, 2-(4-(3,3-difluoropropoxy)-2,5-dimethoxyphenyl)ethan-1-amine], the half-life at 1 μM [1] was > 120 min and the Ki (5-HT2A receptor [2]) was > 150 nM.

With `COc1cc(C2CCCC2)c(OC)cc1CCN` [Compound I-13, 2-(4-cyclopentyl-2,5-dimethoxyphenyl)ethan-1-amine] the “HTR (in words)” value (mice; 3 mg/kg) was “did not elicit an HTR”, the “HTR 15-25 min” value (mice; mice, 3 mg/kg s.c.) was 2.7 and the half-life at 1 μM [1] was 7.8 min. For the same molecule, the half-life at 1 μM (MAO-A) was > 120 min, the “affinity at 5-HT2A receptors (in words)” value (5-HT2A receptor [2]) was “appreciable affinity” and the Ki (5-HT2A receptor [2]; [5]) was 150 nM.

For `COc1cc(C(C)(C)C)c(OC)cc1CCN` [VI-1, 2-(4-(tert-butyl)-2,5-dimethoxyphenyl)ethan-1-amine], the “2A/2B EC50 Selectivity” value (5-HT2A receptor [3]) was 6, the EC50 (5-HT2A receptor [3]) was 4.2 nM and the Emax (5-HT2A receptor [3]) was 87%. For the same molecule, the EC50 (human 5-HT2B receptor) was 25 nM, the Emax (human 5-HT2B receptor) was 87% and the “HTR 15-25 min” value (mice; mice, 3 mg/kg s.c.) was 24.5. The “HTR 160-170 min” value (mice; mice, 3 mg/kg s.c.) was 17.7, the concentration at 15 min ([4]; brain, read-out: Brain 15 min) was 2900 nM and the concentration at 160 min [4, 7] was 4600 nM. It also gave a Kp at 160 min [4] of 57.1, a concentration at 15 min [4, 8] of 250 nM and a concentration at 160 min [4, 9] of 80 nM. The half-life at 1 μM [1] was 2.4 min and the Ki (5-HT2A receptor [2]; [5]) was 9.9 nM.

For `[2H]C([2H])([2H])Oc1cc(C(F)(F)F)c(OC([2H])([2H])[2H])cc1CCN` [II-23, 2-(2,5-bis(methoxy-d3)-4-(trifluoromethyl)phenyl)ethan-1-amine], the half-life at 1 μM [1] was 21.4 min, the half-life at 1 μM (MAO-A) was > 120 min and the Ki (5-HT2A receptor [2]; [6]) was 55 nM.

For `C#CCSc1cc(OC)c(CCN)cc1OC` [Compound I-11, 2-(2,5-dimethoxy-4-(prop-2-yn-1-ylthio)phenyl)ethan-1-amine], the “HTR 15-25 min” value (mice; calculated using 0-30 min) was 24.5 ####, the “HTR 160-170 min” value (mice; mice, 3 mg/kg s.c.) was 16.7 and the Ki (5-HT2A receptor [2]; [5]) was 1.3 nM.

With `[2H]C([2H])([2H])Oc1cc(C2CCCC2)c(OC([2H])([2H])[2H])cc1CCN` [II-4, 2-(4-cyclopentyl-2,5-bis(methoxy-d3)phenyl)ethan-1-amine] the half-life at 1 μM [1] was 7.5 min, the half-life at 1 μM (MAO-A) was > 120 min and the Ki (5-HT2A receptor [2]) was > 150 nM. The Ki (5-HT2A receptor [2]; [5]) was 202 nM.

Work on `[2H]C([2H])([2H])C(c1cc(OC)c(CCN)cc1OC)(C([2H])([2H])[2H])C([2H])([2H])[2H]` [III-2, 2-(2,5-dimethoxy-4-(2-(methyl-d3)propan-2-yl-1,1,1,3,3,3-d6)phenyl)ethan-1-amine] yielded a half-life at 1 μM [1] of 2.5 min and a Ki (5-HT2A receptor [2]) of 10 nM.

`[2H]C([2H])([2H])Oc1cc(C(C)(C)C)c(OC([2H])([2H])[2H])cc1CCN` [II-3, 2-(4-(tert-butyl)-2,5-bis(methoxy-d3)phenyl)ethan-1-amine] gave a half-life at 1 μM [1] of 2.4 min and a Ki (5-HT2A receptor [2]; [5]) of 11 nM.

With `COc1cc(SCCC(F)(F)F)c(OC)cc1CCN` [Compound I-2, 2-(2,5-dimethoxy-4-((3,3,3-trifluoropropyl)thio)phenyl)ethan-1-amine] the half-life at 1 μM [1] was 24.8 min, the half-life at 1 μM (MAO-A) was 30.9 min and the “affinity at 5-HT2A receptors (in words)” value (5-HT2A receptor [2]) was “high affinity”. The Ki (5-HT2A receptor [2]; [5]) was 8.5 nM.

For `COc1cc(OCCCF)c(OC)cc1CCN` [Compound I-7, 2-(4-(3-fluoropropoxy)-2,5-dimethoxyphenyl)ethan-1-amine], the half-life at 1 μM [1] was > 120 min, the half-life at 1 μM (MAO-A) was > 120 min and the Ki (5-HT2A receptor [2]) was > 150 nM. For the same molecule, the Ki (5-HT2A receptor [2]; [5]) was 2600 nM.
